In patent US9738626B2, “Antagonists of prostaglandin EP3 receptor” (Pfizer Inc., priority 2014, dated 2017):

Key:
human EP3 receptor = human EP3 receptor (Homo sapiens (Human), UniProt P43115); assay: EP3 Radioligand SPA Binding Assay; conditions: [3H]-PGE2 displacement, Millipore EP3 Chem1 membranes; geometric mean; Ki from IC50 by Cheng-Prusoff
Procedure: To measure the ability of test compounds in the present invention to bind to the human EP3 receptor, and therefore have the potential to antagonize PGE2 activity, radioligand displacement assays were performed. Compound affinity was expressed as a Ki value, defined as the concentration of compound required to decrease [^3H] PGE2 binding by 50% for a specific membrane batch at a given concentration of radioligand.
Test compounds were half log serially diluted in 100% DMSO (J. T. Baker #922401). 1 μL of each compound was added to appropriate wells of a 384-well plate (Matrix Cat #4322). Unlabeled PGE2 (Tocris Cat #2296) at a final concentration of 1 μM was used to determine non-specific binding. 1 μL of 100% DMSO (J. T. Baker #922401) was used to determine total binding. Millipore EP3 Chem1 membranes (prepared in-house from cell paste derived from the Millipore ChemiSCREEN™ Human Recombinant EP3 Prostanoid Receptor Calcium-Optimized Stable Cell Line (Millipore Cat # HTS092C, http://www.millipore.com/catalogue/item/hts092c)) were thawed and diluted in binding buffer (50 mM Hepes pH 7.4 (Lonza Cat #17-737), 5 mM MgCl2 (Sigma-M1028), and 0.1% BSA (Sigma A-7409)) to a final concentration of 1 μg/25 μL. 25 μL of diluted membranes were added to prepared compound plates. WGA coated PVT SPA Beads (Perkin Elmer Cat # RPNQ0060) were diluted in binding buffer to a concentration of 4 μg/ul, and 25 μL of the SPA bead mixture was then added to each well for a final assay concentration of 100 μg/well. [^3H]-PGE2 (Perkin Elmer Cat #NET428) was diluted in binding buffer to a concentration of […], and […] was added to all wells for a final assay concentration of 1.125 nM. Plates were incubated for 30 minutes at r.t. (approximately 25° C.) with shaking. Radioactivity associated with each well was measured after a 10 hour incubation using a Wallac Trilux MicroBeta plate-based scintillation counter and a normalized protocol at 1 minute read/well. The Kd for [^3H]-PGE2 was determined by carrying out saturation binding, with data analysis by non-linear regression, fit to a one-site hyperbola (GraphPad Prism®). IC50 determinations were made from competition curves, analyzed with a proprietary curve fitting program (SIGHTS), similar to GraphPad PRISM® and a 4-parameter logistic dose response equation. Ki values were calculated from IC50 values, using the Cheng-Prusoff equation.
Table 5 below provides the Ki values of Examples for the binding affinity against human EP3 in accordance with the above-described assay. Results are reported as geometric mean Ki values, where the example is identified as a free base or designated salt that is made as a solution for the experiment and N is the number of samples tested for that example and is the sum of the forms identified with the corresponding number of the respective form in parentheses.

[1] = target: human prostaglandin E3 receptor (EP3) (Homo sapiens (Human), UniProt P43115); assay: Functional activity: cellular cAMP HTRF assay, antagonism of sulprostone; type: cell-based; conditions: CHO-K1 cells expressing human EP3; cAMP with 10 nM sulprostone and forskolin; geometric mean
Procedure: The functional activity of two Examples was determined by measuring the effect on cellular cAMP levels, under conditions whereby antagonism of the EP3 receptor could be measured. Compound activity was expressed as an IC50 value, defined as the concentration of compound required to decrease agonist (sulprostone) activity by 50%. CHO-K1 cells expressing human prostaglandin E3 receptor (EP3, DiscoveRx #95-0159C2) were maintained in Ham's F-12 Nutrient Mixture (Invitrogen #11765-054) containing L-Glutamine (Gibco #25030-081), Geneticin (Gibco #10131-027), Pen Strep (Gibco #15070-063) and 10% heat-inactivated fetal bovine serum (Sigma #F4135). […] Cellular cAMP levels were determined using a Homogeneous Time-Resolved Fluorescence (HTRF) cAMP detection kit (cAMP HI-Range Assay Kit; CisBio #62AM6PEJ). […] The assay plates were then held at r.t. and after 60 minutes, changes in the HTRF signal were read with an Envision 2104 multi-label plate reader using excitation of 330 nm and emissions of 615 and 665 nm. Raw data were converted to nM cAMP by interpolation from a cAMP standard curve (as described in the cAMP detection kit protocol) and IC50 determinations were made from the response curves analyzed with a curve fitting program, similar to GraphPad PRISM® and using a 4-parameter logistic dose response equation. […]

human EP3 receptor, sequence (P43115 whole entry): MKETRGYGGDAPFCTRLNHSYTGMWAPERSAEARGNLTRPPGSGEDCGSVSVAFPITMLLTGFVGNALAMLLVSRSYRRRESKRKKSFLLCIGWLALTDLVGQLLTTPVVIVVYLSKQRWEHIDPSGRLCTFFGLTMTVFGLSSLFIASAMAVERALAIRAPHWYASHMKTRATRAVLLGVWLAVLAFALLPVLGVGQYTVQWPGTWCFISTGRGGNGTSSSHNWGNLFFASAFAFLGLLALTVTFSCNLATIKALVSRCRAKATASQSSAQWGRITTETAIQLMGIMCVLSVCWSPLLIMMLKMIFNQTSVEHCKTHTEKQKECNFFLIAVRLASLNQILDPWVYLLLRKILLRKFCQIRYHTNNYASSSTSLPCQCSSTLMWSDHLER
human prostaglandin E3 receptor (EP3), sequence (P43115 whole entry): as above

Ki (human EP3 receptor)	IC50 [1]	Structure (SMILES)
48.6 nM		C[C@]1(c2ccc(-c3cc(F)c4cccnc4c3)[nH]c2=O)CCCNC1=O [Example 6, (R)-6-(5-Fluoroquinolin-7-yl)-3-(3-methyl-2-oxopiperidin-3-yl)pyridin-2(1H)-one]
8.9 nM		C[C@]1(c2ccc(-c3cc(Cl)c4cccnc4c3)[nH]c2=O)CCCNC1=O [Example 4, (R)-6-(5-Chloroquinolin-7-yl)-3-(3-methyl-2-oxopiperidin-3-yl)pyridin-2(1H)-one]
18.6 nM	34.1 nM	Cc1cccc2ncc(-c3ccc([C@@]4(C)CCNC4=O)c(=O)[nH]3)cc12 [Example 7, (R)-3-(3-Methyl-2-oxopyrrolidin-3-yl)-6-(5-methylquinolin-3-yl)pyridin-2(1H)-one]
3.3 nM	30.8 nM	Cc1cccc2ncc(-c3ccc([C@@]4(C)CCCNC4=O)c(=O)[nH]3)cc12 [Example 1, (R)-3-(3-Methyl-2-oxopiperidin-3-yl)-6-(5-methylquinolin-3-yl)pyridin-2(1H)-one]
4.6 nM		CCc1cc(-c2ccc([C@@]3(C)CCCNC3=O)c(=O)[nH]2)cc2ncccc12 [Example 3, (R)-6-(5-Ethylquinolin-7-yl)-3-(3-methyl-2-oxopiperidin-3-yl)pyridin-2(1H)-one]
7.3 nM		C[C@]1(c2ccc(-c3cc(C4CC4)c4cccnc4c3)[nH]c2=O)CCCNC1=O [Example 5, (R)-6-(5-Cyclopropylquinolin-7-yl)-3-(3-methyl-2-oxopiperidin-3-yl)pyridin-2(1H)-one]
7.2 nM		Cc1cc(-c2ccc([C@@]3(C)CCCNC3=O)c(=O)[nH]2)cc2ncccc12 [Example 2, (R)-3-(3-Methyl-2-oxopiperidin-3-yl)-6-(5-methylquinolin-7-yl)pyridin-2(1H)-one]
